Assay [1] deals with IKZF2 (Homo sapiens (Human), UniProt Q96SW2+Q9UKS7). In words: In vitro IKZF2 HiBit Assay (HEK293T Flp-in-HiBiT cells). Type of assay: cell-based. Conditions: HEK293T Flp-in-HiBiT cells, 6 hrs incubation; for DC50: read-out: IKZF2 HiBit DC50; for Dmax: HEK-293T, read-out: IKZF2 HiBit Dmax (%). How it is done: In Vitro IKZF2 HiBit Assay
The HiBiT protein tagging system was applied to modified HEK293T Flp-in-HiBiT cells (polyclone) via a CRISPR/Cas9-mediated insertion of the HiBiT peptide tag (Promega™) to the N-terminus of the IKZF2 gene locus (Neon™ transfection system). Test and reference compounds are diluted from 1 mM at 3 folds for 11 doses. 25 nL of diluted compound is transfered to assay plates (Corning3570) using ECHO550, the final DMSO concentration @ 0.1%. The cells are seeded in 3000/25 μL/well to compound plates. It is then incubated for 6 hrs in TC incubator. The amount of Nano-Glo® HiBiT lytic reagent needed to perform the desired experiments is calculated. The Nano-Glo® HiBiT lytic reagent is brought to room temperature. The LgBiT protein is diluted to 1:100 and the Nano-Glo® HiBiT lytic substrate is diluted to 1:50 into an appropriate volume of room temperature Nano-Glo® HiBiT lytic buffer. 15 μL of the detection reagent (or without LgBiT) is dispensed to corresponding well according to the layout. The plate is then shaked for 10 mins at room temperature. After briefly centrifuge, the plate is read on Envision. At the indicated timepoints, the Nano-Glo® HiBiT lytic detection system (Promega™) was utilized for detecting bioluminescence of the HiBiT tag in treated cells: abundance of the tag is proportionate to the level of luminescence. Following normalization to DMSO, dose-response curves were plotted (GraphPad Prism) to determine the concentration points at which 50% of HiBiT-Helios degradation was achieved by each compound. The extent of degradation (range of luminescence) from the highest to lowest concentration points was calculated to determine the Dmax.
(§1) DC50, A: <1 nM; B: 1-10 nM; C: 10-100 nM; D: 100-1000 nM; E: 1000-10000 nM; F: >10,000 nM. Dmax, A: >80%; B: 60-80%; C: 40-60%; D: 20-40%; E: <20%.

The target of assay [2] is IKZF1 (Homo sapiens (Human), UniProt Q13422+Q96SW2). The experiment in a line: In vitro IKZF1 HiBit Assay (HEK293T Flp-in-HiBiT-IKZF1 stable cell line). Particulars: HEK293T Flp-in-HiBiT-IKZF1 stable cell line, 6 hrs incubation; for DC50: read-out: IKZF1 HiBit DC50; for Dmax: HEK-293T, read-out: IKZF1 HiBit Dmax (%). Type of assay: cell-based. The method, then: In Vitro IKZF1 HiBit Assay
The HiBiT protein tagging system was applied to modified Cells: modified HEK293T Flp-in-HiBiT-IKZF1 stable cell line (polyclone) via a CRISPR/Cas9-mediated insertion of the HiBiT peptide tag (Promega™) to the N-terminus of the […] gene locus (Neon™ transfection system).
25 nL of diluted compound is transferred to assay plates (Corning3571) using ECHO550, the final DMSO concentration @ 0.1%. The cells are seeded in 3000/25 μL/well to compound plates. The plates are incubated for 6 hrs in TC incubator. The amount of Nano-Glo® HiBiT lytic reagent needed to perform the desired experiments is calculated. The Nano-Glo® HiBiT lytic reagent is brought to room temperature. The LgBiT protein is diluted to 1:100 and the Nano-Glo® HiBiT lytic substrate is brought to 1:50 into an appropriate volume of room temperature Nano-Glo® HiBiT lytic buffer. 15 μL of the detection reagent (or without LgBiT) is dispensed to corresponding well according to the layout. The plate is shaked for 10 mins at room temperature. After briefly centrifuge, the plateis read on Envision. At the indicated timepoints, the Nano-Glo® HiBiT lytic detection system (Promega™) was utilized for detecting bioluminescence of the HiBiT tag in treated cells: abundance of the tag is proportionate to the level of luminescence. Following normalization to DMSO, dose-response curves were plotted (GraphPad Prism) to determine the concentration points at which 50% of HiBiT-Ikaros degradation was achieved by each compound. The extent of degradation (range of luminescence) from the highest to lowest concentration points was calculated to determine the Dmax.
as §1

Chain of IKZF1 (Q13422 whole entry): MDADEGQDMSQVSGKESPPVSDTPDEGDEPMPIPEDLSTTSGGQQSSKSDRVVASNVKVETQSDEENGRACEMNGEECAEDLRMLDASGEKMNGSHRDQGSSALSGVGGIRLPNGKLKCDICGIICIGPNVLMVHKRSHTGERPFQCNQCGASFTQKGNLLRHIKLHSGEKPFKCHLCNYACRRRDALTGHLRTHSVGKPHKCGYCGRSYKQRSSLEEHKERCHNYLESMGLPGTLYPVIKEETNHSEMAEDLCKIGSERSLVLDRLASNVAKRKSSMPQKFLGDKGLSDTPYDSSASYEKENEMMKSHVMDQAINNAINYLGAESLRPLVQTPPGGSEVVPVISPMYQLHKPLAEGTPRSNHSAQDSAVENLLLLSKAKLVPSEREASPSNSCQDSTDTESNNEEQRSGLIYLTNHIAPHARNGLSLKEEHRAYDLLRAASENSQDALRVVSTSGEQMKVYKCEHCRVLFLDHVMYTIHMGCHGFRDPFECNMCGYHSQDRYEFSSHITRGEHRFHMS
Chain of IKZF1 (Q96SW2 whole entry): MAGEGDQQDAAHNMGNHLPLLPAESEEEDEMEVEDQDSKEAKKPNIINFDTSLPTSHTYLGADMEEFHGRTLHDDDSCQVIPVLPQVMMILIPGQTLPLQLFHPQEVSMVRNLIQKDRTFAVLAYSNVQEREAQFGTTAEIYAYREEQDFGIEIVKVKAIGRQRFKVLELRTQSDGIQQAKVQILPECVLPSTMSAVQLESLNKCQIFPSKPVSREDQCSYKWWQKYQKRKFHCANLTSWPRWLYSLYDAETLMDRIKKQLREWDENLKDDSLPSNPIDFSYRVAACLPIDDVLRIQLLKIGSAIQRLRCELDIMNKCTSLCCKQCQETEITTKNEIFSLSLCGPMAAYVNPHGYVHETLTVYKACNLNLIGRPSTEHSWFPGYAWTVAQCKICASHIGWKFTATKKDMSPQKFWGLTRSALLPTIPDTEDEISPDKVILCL
Chain of IKZF1 (Q16531 2-1140 partner): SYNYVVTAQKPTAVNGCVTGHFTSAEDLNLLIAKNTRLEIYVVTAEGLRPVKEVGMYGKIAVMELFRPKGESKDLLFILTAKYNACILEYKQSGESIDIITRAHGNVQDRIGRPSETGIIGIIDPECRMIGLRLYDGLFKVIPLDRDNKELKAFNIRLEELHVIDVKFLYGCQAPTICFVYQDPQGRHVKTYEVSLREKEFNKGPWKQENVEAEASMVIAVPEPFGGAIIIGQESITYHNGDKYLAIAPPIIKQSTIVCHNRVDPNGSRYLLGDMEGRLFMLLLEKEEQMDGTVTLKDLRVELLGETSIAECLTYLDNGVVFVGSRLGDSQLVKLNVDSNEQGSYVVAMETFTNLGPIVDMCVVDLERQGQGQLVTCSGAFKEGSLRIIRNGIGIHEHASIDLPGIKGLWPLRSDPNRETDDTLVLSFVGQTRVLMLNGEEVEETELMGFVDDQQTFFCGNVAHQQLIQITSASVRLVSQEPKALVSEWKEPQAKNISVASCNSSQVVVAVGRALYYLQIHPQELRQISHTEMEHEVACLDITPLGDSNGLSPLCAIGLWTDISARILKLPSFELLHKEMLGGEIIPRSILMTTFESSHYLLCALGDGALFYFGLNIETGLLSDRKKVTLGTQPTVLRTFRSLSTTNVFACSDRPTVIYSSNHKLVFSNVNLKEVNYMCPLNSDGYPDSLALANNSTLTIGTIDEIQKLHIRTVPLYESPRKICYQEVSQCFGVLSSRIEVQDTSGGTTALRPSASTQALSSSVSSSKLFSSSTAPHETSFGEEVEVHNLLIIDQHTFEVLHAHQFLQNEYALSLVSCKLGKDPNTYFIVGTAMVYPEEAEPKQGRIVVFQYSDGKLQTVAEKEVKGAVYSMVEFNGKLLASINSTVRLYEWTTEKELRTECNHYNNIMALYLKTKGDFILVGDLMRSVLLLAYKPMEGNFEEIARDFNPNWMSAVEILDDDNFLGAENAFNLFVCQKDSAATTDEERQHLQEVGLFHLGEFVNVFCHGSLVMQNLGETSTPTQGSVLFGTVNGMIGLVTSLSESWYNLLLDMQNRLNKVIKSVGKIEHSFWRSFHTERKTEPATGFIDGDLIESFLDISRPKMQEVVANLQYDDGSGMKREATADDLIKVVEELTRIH
Chain of IKZF2 (Q9UKS7 whole entry): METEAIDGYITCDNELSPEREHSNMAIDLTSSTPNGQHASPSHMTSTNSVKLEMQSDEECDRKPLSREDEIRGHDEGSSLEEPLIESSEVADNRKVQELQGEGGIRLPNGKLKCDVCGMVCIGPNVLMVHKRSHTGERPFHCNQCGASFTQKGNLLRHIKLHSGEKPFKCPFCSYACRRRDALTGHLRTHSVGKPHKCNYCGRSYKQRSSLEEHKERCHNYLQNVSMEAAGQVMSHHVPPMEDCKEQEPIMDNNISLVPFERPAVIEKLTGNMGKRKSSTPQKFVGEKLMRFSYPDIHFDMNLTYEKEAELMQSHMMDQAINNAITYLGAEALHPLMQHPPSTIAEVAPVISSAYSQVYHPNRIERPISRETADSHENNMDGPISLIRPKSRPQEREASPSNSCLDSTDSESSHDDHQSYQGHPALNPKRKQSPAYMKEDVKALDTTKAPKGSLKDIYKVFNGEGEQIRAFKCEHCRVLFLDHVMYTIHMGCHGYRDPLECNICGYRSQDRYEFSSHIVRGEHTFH
Chain of IKZF2 (Q96SW2 whole entry): as the sequence (Q96SW2 whole entry) above
Chain of IKZF2 (Q16531 2-1140 partner): as the sequence (Q16531 2-1140 partner) above

Consider `CC(C)Nc1n[nH]c2c(CN3CC4(COC4)C3)cc(-c3ccc4c(c3F)CN(C3CCC(=O)NC3=O)C4=O)nc12` (stereo not drawn) [Example 287, 3-(5-(7-((2-oxa-6-azaspiro[3.3]heptan-6-yl)methyl)-3-(isopropylamino)-1H-pyrazolo[4,3-b]pyridin-5-yl)-4-fluoro-1-oxoisoindolin-2-yl) piperidine-2,6-dione], for which, in assay [1], the DC50 was in the range of 10 to 100 nM and the Dmax fell in the range of 60 to 80%. In assay [2], the DC50 fell in the range of 100 to 1000 nM and the Dmax fell in the range of 20 to 40%.
In the same order, the values of `Cc1cc(-c2ccc3c(c2)CN(C2CCC(=O)NC2=O)C3=O)nc2c1nc(CN1CCCC1)n2C1COC1` (stereo not drawn) [Example 259, 3-(5-(7-methyl-3-(oxetan-3-yl)-2-(pyrrolidin-1-ylmethyl)-3H-imidazo[4,5-b]pyridin-5-yl)-1-oxoisoindolin-2-yl) piperidine-2,6-dione] are over 10000 nM, under 20%, over 10000 nM and under 20%.
In the same order, the values of `CC(C)CC1CN(Cc2cc(-c3ccc4c(c3)CN(C3CCC(=O)NC3=O)C4=O)nc3[nH]ccc23)CC1O` (stereo not drawn) [Example 138, 3-(5-(4-((3-hydroxy-4-isobutylpyrrolidin-1-yl)methyl)-1H-pyrrolo[2,3-b]pyridin-6-yl)-1-oxoisoindolin-2-yl) piperidine-2,6-dione] are 1 to 10 nM, over 80%, 100 to 1000 nM and 20 to 40%.
In the same order, the values of `CS(=O)(=O)Nc1n[nH]c2c(CN3CCCC3)cc(-c3ccc4c(c3F)CN(C3CCC(=O)NC3=O)C4=O)nc12` (stereo not drawn) [Example 297, N-(5-(2-(2,6-dioxopiperidin-3-yl)-4-fluoro-1-oxoisoindolin-5-yl)-7-(pyrrolidin-1-ylmethyl)-1H-pyrazolo[4,3-b]pyridin-3-yl) methanesulfonamide] are over 10000 nM, under 20%, over 10000 nM and under 20%.
Consider `CCc1c(-c2ccc3c(c2)CN(C2CCC(=O)NC2=O)C3=O)nc2c(ccn2C2COC2)c1CN1CCCC1` (stereo not drawn) [Example 262, 3-(5-(5-ethyl-1-(oxetan-3-yl)-4-(pyrrolidin-1-ylmethyl)-1H-pyrrolo[2,3-b]pyridin-6-yl)-1-oxoisoindolin-2-yl) piperidine-2,6-dione], for which the results for the DC50 in assay [1] and in assay [2] were 1 to 10 nM and over 10000 nM, respectively. Also, the Dmax is 60 to 80% in assay [1] and under 20% in assay [2].
With `O=C1CCC(N2Cc3cc(-c4cc(CN5CCCC5)c5nccc(OCCO)c5n4)ccc3C2=O)C(=O)N1` (stereo not drawn) [Example 285, 3-(5-(8-(2-hydroxyethoxy)-4-(pyrrolidin-1-ylmethyl)-1,5-naphthyridin-2-yl)-1-oxoisoindolin-2-yl) piperidine-2,6-dione], the DC50 in assay [1] was 1 to 10 nM; in assay [2] it was over 10000 nM. The values for the Dmax in assay [1] and in assay [2] were 20 to 40% and under 20%, respectively.
As for `O=C1CCC(N2Cc3cc(-c4cc(CN5CCCC5)c5cccc(C6CCC6)c5n4)ccc3C2=O)C(=O)N1` (stereo not drawn) [Example 241, 3-(5-(8-cyclobutyl-4-(pyrrolidin-1-ylmethyl)quinolin-2-yl)-1-oxoisoindolin-2-yl) piperidine-2,6-dione], in assay [1], the DC50 fell in the range of 10 to 100 nM and the Dmax was in the range of 40 to 60%. Also, in assay [2], the DC50 was over 10000 nM and the Dmax was under 20%.
On the same counts, the results for `Cn1cnc(-n2ccc3c(CN4CCCC4)cc(-c4ccc5c(c4)CN([C@H]4CCC(=O)NC4=O)C5=O)nc32)c1` [Example 263, (S)-3-(5-(1-(1-methyl-1H-imidazol-4-yl)-4-(pyrrolidin-1-ylmethyl)-1H-pyrrolo[2,3-b]pyridin-6-yl)-1-oxoisoindolin-2-yl) piperidine-2,6-dione] are 1 to 10 nM, 40 to 60%, over 10000 nM and under 20%.
On the same counts, the results for `O=C1CCC(N2Cc3cc(-c4cc(CN5CC(CO)C5)c5ccn(C6CC6)c5n4)ccc3C2=O)C(=O)N1` (stereo not drawn) [Example 152, 3-(5-(1-cyclopropyl-4-((3-(hydroxymethyl)azetidin-1-yl)methyl)-1H-pyrrolo[2,3-b]pyridin-6-yl)-1-oxoisoindolin-2-yl) piperidine-2,6-dione] are 10 to 100 nM, over 80%, 100 to 1000 nM and 20 to 40%.
For the compound `Cn1nc(N)c2nc(-c3ccc4c(c3)CN(C3CCC(=O)NC3=O)C4=O)cc(CN3CCCC3)c21` (stereo not drawn) [Example 183, 3-(5-(3-amino-1-methyl-7-(pyrrolidin-1-ylmethyl)-1H-pyrazolo[4,3-b]pyridin-5-yl)-1-oxoisoindolin-2-yl) piperidine-2,6-dione], in assay [1], the DC50 lay within 1 to 10 nM and the Dmax is over 80%. Moreover, in assay [2], the DC50 lay within 10 to 100 nM and the Dmax is 40 to 60%.
With `CNC(=O)Cn1ccc2c(CN3CCCC3)cc(-c3ccc4c(c3)CN(C3CCC(=O)NC3=O)C4=O)nc21` (stereo not drawn) [Example 150, 2-(6-(2-(2,6-dioxopiperidin-3-yl)-1-oxoisoindolin-5-yl)-4-(pyrrolidin-1-ylmethyl)-1H-pyrrolo[2,3-b]pyridin-1-yl)-N-methylacetamide], in assay [1], the DC50 was in the range of 10 to 100 nM and the Dmax is 60 to 80%. In assay [2], the DC50 was over 10000 nM and the Dmax was under 20%.
On the same counts, the results for `O=C1CCC(N2Cc3cc(-c4cc(CN5CCCC5)c5[nH]nc(C6CC6)c5n4)ccc3C2=O)C(=O)N1` (stereo not drawn) [Example 202, 3-(5-(3-cyclopropyl-7-(pyrrolidin-1-ylmethyl)-1H-pyrazolo[4,3-b]pyridin-5-yl)-1-oxoisoindolin-2-yl) piperidine-2,6-dione] are 1 to 10 nM, over 80%, 1 to 10 nM and 40 to 60%.
On the same counts, the results for `CC(C)CC1CCN(Cc2cc(-c3ccc4c(c3)CN(C3CCC(=O)NC3=O)C4=O)nc3[nH]ccc23)C1` (stereo not drawn) [Example 153, 3-(5-(4-((3-isobutylpyrrolidin-1-yl)methyl)-1H-pyrrolo[2,3-b]pyridin-6-yl)-1-oxoisoindolin-2-yl) piperidine-2,6-dione] are under 1 nM, over 80%, 10 to 100 nM and 40 to 60%.
On the same counts, the results for `O=C1CCC(N2Cc3cc(-c4cc(CN5CCCC5)c5nccc(OC6COC6)c5n4)ccc3C2=O)C(=O)N1` (stereo not drawn) [Example 251, 3-(5-(8-(oxetan-3-yloxy)-4-(pyrrolidin-1-ylmethyl)-1,5-naphthyridin-2-yl)-1-oxoisoindolin-2-yl) piperidine-2,6-dione] are 10 to 100 nM, 60 to 80%, over 10000 nM and under 20%.
`CS(=O)(=O)CCn1ccc2c(CN3CCCC3)cc(-c3ccc4c(c3)CN(C3CCC(=O)NC3=O)C4=O)nc21` (stereo not drawn) [Example 136, 3-(5-(1-(2-(methylsulfonyl)ethyl)-4-(pyrrolidin-1-ylmethyl)-1H-pyrrolo[2,3-b]pyridin-6-yl)-1-oxoisoindolin-2-yl) piperidine-2,6-dione]: in assay [1], the DC50 was in the range of 10 to 100 nM and the Dmax is 20 to 40%. In addition, in assay [2], the DC50 was over 10000 nM and the Dmax is under 20%.

The values above are taken from US20250214991A1 (Oncopia Therapeutics, Inc. d/b/a/ SK Life Science Labs, priority 2022, published 2025).
